Laboratory results taken from US8957074B2 (Novartis AG, priority 2010, dated 2015).
Like-named read-outs stand apart in the source and are kept apart here.

What was measured:
CDK4/cyclin D1 = CDK4/cyclin D1 (Homo sapiens (Human), UniProt P11802); assay: CDK4/cyclin D1 enzymatic activity assay (TR-FRET, phosphorylation of pRb at Ser780); format: biochemical; conditions: 0.3 nM CDK4/cyclin D1, 150 nM biotin-pRb (773-924), 3 μM ATP, 60 min at 22° C.; read-out: Biochemical CDK4 enzyme IC50
Method in brief: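 Phosphorylation at pRb Ser780, detected by TR-FRET, gave IC50s and kinetics. Enzyme: baculovirus/Sf21-expressed human CDK4/cyclin D1. ATP at 3 μM initiated the reaction; EDTA (pH 8.0) stopped it after 60 min at 22° C.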

CDK1/cyclin B = CDK1/cyclin B (Homo sapiens (Human), UniProt P06493); assay: CDK1/cyclin B enzymatic activity assay (IMAP-FP); format: biochemical; conditions: 100 nM Tamra Histone-H1 peptide, 20 μM ATP, 120 min at room temperature, read-out: Biochemical CDK1 enzyme IC50
Chain of CDK1/cyclin B (P06493 whole entry, species assumed): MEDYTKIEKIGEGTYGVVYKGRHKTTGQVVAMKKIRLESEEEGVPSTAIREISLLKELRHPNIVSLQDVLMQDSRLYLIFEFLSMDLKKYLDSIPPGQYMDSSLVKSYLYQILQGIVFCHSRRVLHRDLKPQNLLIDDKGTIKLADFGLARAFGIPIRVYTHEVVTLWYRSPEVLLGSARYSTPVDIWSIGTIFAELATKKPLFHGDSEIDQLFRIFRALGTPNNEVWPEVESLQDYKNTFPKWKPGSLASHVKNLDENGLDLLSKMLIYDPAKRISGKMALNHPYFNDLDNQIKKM
Chain of CDK1/cyclin B (P14635 whole entry partner, species assumed): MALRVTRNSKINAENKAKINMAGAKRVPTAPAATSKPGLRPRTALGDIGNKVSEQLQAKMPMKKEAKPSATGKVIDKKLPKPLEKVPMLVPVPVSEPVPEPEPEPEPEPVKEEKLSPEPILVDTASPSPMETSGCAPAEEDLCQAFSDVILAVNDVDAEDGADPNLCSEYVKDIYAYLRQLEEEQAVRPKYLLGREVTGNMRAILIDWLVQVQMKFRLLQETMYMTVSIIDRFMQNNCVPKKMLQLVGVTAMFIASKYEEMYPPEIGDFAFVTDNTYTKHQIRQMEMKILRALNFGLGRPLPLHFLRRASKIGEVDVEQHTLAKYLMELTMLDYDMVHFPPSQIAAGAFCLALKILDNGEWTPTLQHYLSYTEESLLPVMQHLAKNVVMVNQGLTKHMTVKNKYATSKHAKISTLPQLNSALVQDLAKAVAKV
Description: CDK1/Cyclin B Enzymatic Activity Assay
A 384-well microtiter IMAP-FP™ (Molecular Devices Trade Mark Technology) endpoint assay was used for CDK1/cyclin B kinase activity measurements. The same assay was used for IC50 determination of small molecule inhibitors.

[1] = tested on: phosphorylation of pRb at the Ser780 site in JeKo-1 mantle cell lymphoma cells; assay: CDK4 cellular assay: ELISA of pRb phosphorylation at Ser780 in JeKo-1 cells; format: cell-based; conditions: Homo sapiens
[2] = JeKo-1 cells, p-pRb % inhibition adjusted with total pRb levels, read-out: Normalized cellular ppRb inhibition IC50
[3] = JeKo-1 cells, p-pRb Ser780 ELISA, non-normalized, read-out: Cellular ppRb inhibition IC50
[4] = JeKo-1, JeKo-1 cells, p-pRb % inhibition adjusted with total pRb levels, read-out: Normalized cellular ppRb inhibition IC50
[5] = JeKo-1, JeKo-1 cells, p-pRb Ser780 ELISA, non-normalized, read-out: Cellular ppRb inhibition IC50
[6] = JeKo-1, read-out: Cellular ppRb inhibition IC50
[7] = JeKo-1, read-out: Normalized cellular ppRb inhibition IC50

Chain of CDK4/cyclin D1 (P11802 whole entry): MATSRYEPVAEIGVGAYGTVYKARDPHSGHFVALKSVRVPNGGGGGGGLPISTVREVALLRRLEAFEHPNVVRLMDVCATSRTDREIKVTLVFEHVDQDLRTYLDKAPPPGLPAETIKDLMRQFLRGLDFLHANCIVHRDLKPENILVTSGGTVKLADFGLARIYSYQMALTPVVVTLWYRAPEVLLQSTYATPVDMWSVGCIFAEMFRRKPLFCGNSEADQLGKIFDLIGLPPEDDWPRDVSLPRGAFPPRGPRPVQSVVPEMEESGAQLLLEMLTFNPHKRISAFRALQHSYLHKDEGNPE
Chain of CDK4/cyclin D1 (P24385 whole entry partner): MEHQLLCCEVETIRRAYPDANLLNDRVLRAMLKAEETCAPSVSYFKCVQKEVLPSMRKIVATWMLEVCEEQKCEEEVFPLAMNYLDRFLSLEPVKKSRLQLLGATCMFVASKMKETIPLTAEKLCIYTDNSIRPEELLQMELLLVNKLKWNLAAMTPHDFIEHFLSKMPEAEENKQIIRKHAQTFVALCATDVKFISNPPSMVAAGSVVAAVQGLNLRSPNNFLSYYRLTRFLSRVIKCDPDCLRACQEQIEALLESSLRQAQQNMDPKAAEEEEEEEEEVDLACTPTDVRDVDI

Row | Compound | IC50 (CDK4/cyclin D1) [nM] | IC50 (CDK1/cyclin B; […] CDK1/cyclin B) [nM] | IC50 [1, 2] [nM] | IC50 [1, 3] [nM] | IC50 [1, 4] [nM] | IC50 [1, 5] [nM] | IC50 (CDK1/cyclin B; 0.25 nM CDK1/cyclin B) [nM] | IC50 [1, 6] [nM] | IC50 [1, 7] [nM]
1 | CC(C)N1[C@@H]2CC[C@H]1CN(c1ccc(Nc3ncc4cc(C(=O)N(C)C)n(C5CCCC5)c4n3)nc1)C(=O)C2 [Example 142, 7-Cyclopentyl-2-[5-((1S,6R)-9-isopropyl-4-oxo-3,9-diaza-bicyclo[4.2.1]non-3-yl)-pyridin-2-ylamino]-7H-pyrrolo[2,3-d]pyrimidine-6-carboxylic acid dimethylamide] | 34 | > 15000 | 13 | 6 |  |  |  |  | 
2 | CN(C)C(=O)c1cc2cnc(Nc3ccc(N4C[C@@H]5CC[C@H](CC4=O)N5)cn3)nc2n1C1CCC1 [Example 135, 7-Cyclobutyl-2-[5-((1S,6R)-4-oxo-3,9-diaza-bicyclo[4.2.1]non-3-yl)-pyridin-2-ylamino]-7H-pyrrolo[2,3-d]pyrimidine-6-carboxylic acid dimethylamide] | 7 | > 15000 |  |  | 38 | 19 |  |  | 
3 | CC(C)N1C2CCC1CN(C(=O)c1ccc(Nc3ncc4cc(C(=O)N(C)C)n(C5CCCC5)c4n3)nc1)C2 [Example 29, 7-cyclopentyl-2-(5-(8-isopropyl-3,8-diazabicyclo[3.2.1]octane-3-carbonyl)pyridin-2-ylamino)-N,N-dimethyl-7H-pyrrolo[2,3-d]pyrimidine-6-carboxamide] | 14 to 17 | > 15000 | 20 to 48 | 24 to 34 |  |  |  |  | 
4 | CN(C)C(=O)c1cc2cnc(Nc3ccc(C(=O)N4CC5CCC(C4)N5)cn3)nc2n1C(C)(C)C [Example 58, 7-tert-Butyl-2-[5-(3,8-diaza-bicyclo[3.2.1]octane-3-carbonyl)-pyridin-2-ylamino]-7H-pyrrolo[2,3-d]pyrimidine-6-carboxylic acid dimethylamide] | 74 | > 15000 | 288 to 338 | 105 to 188 |  |  |  |  | 
5 | CN(C)C(=O)c1cc2cnc(Nc3ccc(N4CCN5CCCC5C4=O)cn3)nc2n1C1CCCC1 (centres unmarked) [Example 115] | 20 to 51 |  |  |  | 369 to 407 | 135 to 306 | > 15000 |  | 
6 | CN1C[C@@H]2CC(=O)N(c3ccc(Nc4ncc5cc(C(=O)N(C)C)n(C6CCCCCC6)c5n4)nc3)C[C@@H]2C1 [Example 93, 7-cycloheptyl-N,N-dimethyl-2-(5-((3aS,7aR)-2-methyl-6-oxotetrahydro-1H-pyrrolo[3,4-c]pyridin-5(6H,7H,7aH)-yl)pyridin-2-ylamino)-7H-pyrrolo[2,3-d]pyrimidine-6-carboxamide] | < 5 | > 15000 |  |  | 20 | 8 |  |  | 
7 | CN(C)C(=O)c1cc2cnc(Nc3ccc(N4C[C@@]5(CCCNCC5)OC4=O)cn3)nc2n1C1CCCC1 [Example 105, 7-Cyclopentyl-2-[5-((S)-2-oxo-1-oxa-3,8-diaza-spiro[4.6]undec-3-yl)-pyridin-2-ylamino]-7H-pyrrolo[2,3-d]pyrimidine-6-carboxylic acid dimethylamide] | 12 | > 15000 | 100 | 61 |  |  |  |  | 
8 | CN(C)C(=O)c1cc2cnc(Nc3ccc(C(=O)N4CC5CCC(C4)N5C(=O)CN)cn3)nc2n1C1CCCC1 [Example 60, 2-{5-[8-(2-Amino-acetyl)-3,8-diaza-bicyclo[3.2.1]octane-3-carbonyl]-pyridin-2-ylamino}-7-cyclopentyl-7H-pyrrolo[2,3-d]pyrimidine-6-carboxylic acid dimethylamide] | 19 | > 15000 | 47 | 21 |  |  |  |  | 
9 | CN(C)C(=O)c1cc2cnc(Nc3ccc(N4C[C@H]5CC[C@@H](CC4=O)N5)cn3)nc2n1C1CCC1 [Example 136, 7-Cyclobutyl-2-[5-((1R,6S)-4-oxo-3,9-diaza-bicyclo[4.2.1]non-3-yl)-pyridin-2-ylamino]-7H-pyrrolo[2,3-d]pyrimidine-6-carboxylic acid dimethylamide] | 54 | > 15000 |  |  | 218 | 77 |  |  | 
10 | CN(C)C(=O)c1cc2cnc(Nc3ccc(N4CC5CNCC5CC4=O)cn3)nc2n1C1CCCCCC1 (racemic) [Example 87, 7-cycloheptyl-N,N-dimethyl-2-(5-(cis-6-oxotetrahydro-1H-pyrrolo[3,4-c]pyridin-5(6H,7H,7aH)-yl)pyridin-2-ylamino)-7H-pyrrolo[2,3-d]pyrimidine-6-carboxamide] | < 5 | 4140 |  |  |  |  |  | 5 to 8 | 6 to 15
11 | [2H]C([2H])([2H])N1[C@@H]2CC[C@H]1CN(c1ccc(Nc3ncc4cc(C(=O)N(C)C)n(C5CCCC5)c4n3)nc1)C(=O)C2 [Example 143, 7-Cyclopentyl-2-[5-((1S,6R)-9-trideuteromethyl-4-oxo-3,9-diazabicyclo[4.2.1]non-3-yl)-pyridin-2-ylamino]-7H-pyrrolo[2,3-d]pyrimidine-6-carboxylic acid dimethylamide] | 44 |  |  |  | 251 | 119 | > 15000 |  | 
12 | CN(C)C(=O)c1cc2cnc(Nc3ccc(C(=O)N4CC5CCC(C4)N5C(=O)C4CCCN4)cn3)nc2n1C1CCCC1 (centres unmarked) [Example 61, 7-Cyclopentyl-2-{5-[8-(pyrrolidine-2-carbonyl)-3,8-diaza-bicyclo[3.2.1]octane-3-carbonyl]-pyridin-2-ylamino}-7H-pyrrolo[2,3-d]pyrimidine-6-carboxylic acid dimethylamide] | 20 | > 15000 | 53 | 21 |  |  |  |  | 
13 | CC(=O)N1C2CCC1CN(C(=O)c1ccc(Nc3ncc4cc(C(=O)N(C)C)n(C5CCCC5)c4n3)nc1)C2 [Example 27, 2-(5-(8-acetyl-3,8-diazabicyclo[3.2.1]octane-3-carbonyl)pyridin-2-ylamino)-7-cyclopentyl-N,N-dimethyl-7H-pyrrolo[2,3-d]pyrimidine-6-carboxamide] | 46 | > 15000 | 201 | 194 |  |  |  |  | 
14 | CN(C)C(=O)c1cc2cnc(Nc3ccc(N4CC5(CCNCC5)OC4=O)cn3)nc2n1C1CCCC1 [Example 119, 7-cyclopentyl-N,N-dimethyl-2-(5-(2-oxo-1-oxa-3,8-diazaspiro[4.5]decan-3-yl)pyridin-2-ylamino)-7H-pyrrolo[2,3-d]pyrimidine-6-carboxamide] | 12 | > 15000 | 72 to 83 | 26 to 47 |  |  |  |  | 
15 | CN(C)C(=O)c1cc2cnc(Nc3ccc(N4CCN5CCCC5C4=O)cn3)nc2n1C1CCCCC1 (centres unmarked) [Example 98, 7-Cyclohexyl-2-[5-(1-oxo-hexahydro-pyrrolo[1,2-a]pyrazin-2-yl)-pyridin-2-ylamino]-7H-pyrrolo[2,3-d]pyrimidine-6-carboxylic acid dimethylamide] | 16 to 98 | > 15000 |  |  |  |  |  | 136 to 266 | 291 to 887
16 | CN(C)C(=O)c1cc2cnc(Nc3ccc(N4C[C@@H]5CC[C@H](CC4=O)N5)cn3)nc2n1C1CCCCC1 [Example 132, 7-Cyclohexyl-2-[5-((1S,6R)-4-oxo-3,9-diaza-bicyclo[4.2.1]non-3-yl)-pyridin-2-ylamino]-7H-pyrrolo[2,3-d]pyrimidine-6-carboxylic acid dimethylamide] | 19 | > 15000 |  |  | 28 to 47 | 21 to 50 |  |  | 
17 | CN(C)C(=O)c1cc2cnc(Nc3ccc(C(=O)N4C[C@@H]5C[C@H]4C[C@@H]5O)cn3)nc2n1C1CCCC1 [Example 30, 7-cyclopentyl-2-(5-((1S,4S,5S)-5-hydroxy-2-azabicyclo[2.2.1]heptane-2-carbonyl)pyridin-2-ylamino)-N,N-dimethyl-7H-pyrrolo[2,3-d]pyrimidine-6-carboxamide] | 88 to 114 | > 15000 | 344 to 582 | 422 to 542 |  |  |  |  | 
18 | CN(C)C(=O)c1cc2cnc(Nc3ccc(C(=O)N4CCC[C@@H]5CCN[C@@H]5C4)cn3)nc2n1C1CCCC1 [Example 25, 7-Cyclopentyl-2-[5-((3aR,8aS)-octahydro-pyrrolo[2,3-c]azepine-7-carbonyl)-pyridin-2-ylamino]-7H-pyrrolo[2,3-d]pyrimidine-6-carboxylic acid dimethylamide] | 8 | > 15000 |  |  | 22 | 20 |  |  | 
19 | CN(C)C(=O)c1cc2cnc(Nc3ccc(N4C[C@H]5CC[C@@H](CC4=O)N5C)cn3)nc2n1C1CCCC1 [Example 140, 7-cyclopentyl-N,N-dimethyl-2-(5-((1R,6S)-9-methyl-4-oxo-3,9-diazabicyclo[4.2.1]nonan-3-yl)pyridin-2-ylamino)-7H-pyrrolo[2,3-d]pyrimidine-6-carboxamide] | 5 to 6 | > 15000 |  |  | 11 to 18 | 5 to 9 |  |  | 
20 | CN(C)C(=O)c1cc2cnc(Nc3ccc(N4CC5(CC4=O)CC4CCC(C5)N4)cn3)nc2n1C1CCCOC1 (centres unmarked) [Example 120, N,N-dimethyl-2-(5-(5′-oxo-8-azaspiro[bicyclo[3.2.1]octane-3,3′-pyrrolidine]-1′-yl)pyridin-2-ylamino)-7-(tetrahydro-2H-pyran-3-yl)-7H-pyrrolo[2,3-d]pyrimidine-6-carboxamide] | 66 | > 15000 | 1030 | 677 |  |  |  |  | 
